Laboratory results: paper PMC12128972, “TYRA-300, an FGFR3-selective inhibitor, promotes bone growth in two FGFR3-driven models of chondrodysplasia” (JCI Insight, 2025)
Values joined by “and” are separate entries in the source; they are usually repeats but may differ in a detail not shown here. Equal values may be shown once.

Key:
[1] = system: Fgfr3^Y367C/+ mouse model, which mimics the phenotype of ACH; assay: Fgfr3Y367C/+ mice: growth, body weight and long bone length (calipers, x-ray); type: in vivo; parameters: nasoanal length, individual mice / tail length, individual mice: unit not given here; details: for nasoanal length, individual mice / tail length, individual mice / body weight, individual mice: 1.2 mg/kg/d s.c. from day 1
Procedure: In this study, Fgfr3^Y367C/+ mice were administered TYRA-300 daily by subcutaneous injection at a dose of 1.2 mg/kg for 15 days beginning at 1 day of age to evaluate the effects on growth, bone length, and key skeletal parameters, compared with those of vehicle-treated Fgfr3^Y367C/+ mice. Results were also compared with those from vehicle-treated Fgfr3^+/+ (wild-type) mice. […] In Fgfr3^Y367C/+ mice, the […], resulting in disproportionate long bones.
Tg-CMV^Cre/+/Fgfr3^Y367C/+ mice were tattooed and assigned to treatment groups within each litter at 1 day of age (wild-type mice, Fgfr3^Y367/+ mice treated with vehicle, or Fgfr3^Y367/+ mice treated with 1.2 mg/kg TYRA-300). TYRA-300 was dissolved in aqueous HCl (3.5 mM) containing 5% dimethyl sulfoxide (DMSO) and administered subcutaneously to Fgfr3^Y367/+ mice (n = 8) for 15 days. The vehicle was administered to wild-type (n = 10) or Fgfr3^Y367/+ mice (n = 10) for 15 days. Subcutaneous administration was used for this study rather than oral gavage due to the reduced size of the mice. Clinical observations, nasoanal length and tail length measurements were performed every 3 days, and body weights were collected daily.
Whole body x-ray images were taken of all animals by Faxitron specimen radiography MX-20 (Faxitron X-Ray LLC) following terminal sacrifice. The length of the L4–L6 lumbar vertebra segment was also measured for each animal using calipers, and the height of the L5 vertebral body was measured from Alcian blue/Sirius red images. Long bones and the skull were then excised, and their dimensions were measured using calipers (VWRi819-0013, VWR International). The transverse and sagittal diameters of the foramen magnum were also measured using calipers for the Fgfr3^Y367/+ model, and measured using the μCT images for the Fgfr3^N534K/+ model.

[2] = system: growth plate chondrocytes of Fgfr3^Y367C/+ mice; assay: Fgfr3Y367C/+ mice: histology and immunohistochemistry of distal femur growth plate (H&E, collagen type X, PCNA, HZC count); type: in vivo, mouse
Procedure: To understand the effects of TYRA-300 treatment on the growth plate cartilage and chondrocytes and the mechanism through which TYRA-300 increases bone growth, histological analysis of the femurs of Fgfr3^Y367C/+ mice was performed. […] Treatment also facilitated angiogenesis, deposition of bone matrix, and resorption of the cartilage. In addition, the overall structure of the growth plate was more organized after treatment with TYRA-300. […] The organization of the hypertrophic zone, with HZCs organized in columns, appeared similar in TYRA-300–treated Fgfr3^Y367C/+ mice and Fgfr3^+/+ mice. Within the hypertrophic zone of TYRA-300–treated mice, the HZCs were larger than in vehicle-treated mice.
(§1) The right femur and lumbar vertebrae segment L4–L6 were collected and fixed in 4% paraformaldehyde, decalcified with ethylenediaminetetraacetic acid (EDTA) 0.5 M (pH 8) for 2 or 3 weeks, and embedded in paraffin. Serial paraffin sections of 5 μm were stained with hematoxylin, eosin, and Safranin O. For immunohistochemistry, sections were labeled with antibodies against collagen type X (BIOCYC ref. [1]-CO097-05-RUO, 1:100 dilution), collagen type I (Novotec, 20151, dilution 1:1,000), pERK (Cell Signaling, 4370S, dilution 1:1,000), and PCNA (Abcam, GR3195972-6, 1:500 dilution) using the Dako Envision Kit. Images were captured with an Olympus PD70-IX2-UCB microscope and CellSens software (Olympus Life Science Solutions). Cells were counted using ImageJ software (NIH, Laboratory for Optical Computational Instrumentation).

[3] = system: lumbar vertebrae of Fgfr3^N534K/+ mice; assay: Fgfr3N534K/+ mice: histology of lumbar vertebrae and intervertebral disc; type: in vivo, mouse; details: 1.8 mg/kg daily for 21 days
Description: We also analyzed the lumbar vertebrae and intervertebral disc (Figure 5E).
as §1

[4] = system: FGFR3 N540K; parameters: method as in PMID 39258897; details: cited from earlier work
[5] = 1.2 mg/kg s.c. daily for 15 days
[6] = 1.2 mg/kg s.c. daily for 15 days from 1 day of age
[7] = Fgfr3Y367C/+ mice + TYRA-300, individual animal values, in mm (unit assumed)

In the case of `C[C@@H](Oc1ccc2[nH]nc(-c3ccc(N4CC5(C4)CN(S(C)(=O)=O)C5)nc3)c2c1)c1c(Cl)cncc1Cl` [TYRA-300], the “increase in length of the femur vs vehicle” value [1, 5] is reported as 22.55%, the “increase in length of the humerus vs vehicle” value [1, 5] is reported as 15.52% and the “increase in length of the tibia vs vehicle” value [1, 5] is reported as 33.01%. The “increase in length of the ulna vs vehicle” value [1, 5] was 23.51%, the “increase in nasoanal length vs vehicle-treated mutant mice” value [1, 6] was 17.88% and the “increase in tail length vs vehicle-treated mutant mice” value [1, 6] was 25.10%. For the same molecule, the “increase in body weight vs vehicle-treated mice” value ([1]; 1.2 mg/kg s.c. daily, end of treatment) was 52.9%, the “nasoanal length, individual mice” value ([1]; day 1) was 29 (4×) and 30 and 28 and 31 (2×) and the “tail length, individual mice” value ([1]; day 1) was 12 and 13 (6×) and 14. For the same molecule, the “body weight, individual mice” value ([1]; day 1, in g (unit assumed)) was 1.56 and 1.58 and 1.46 and 1.33 and 1.47 and 1.4 and 1.37 and 1.6, the “body weight, individual mice” value ([1]; day 2, in g (unit assumed)) was 1.72 and 1.94 and 1.84 and 1.42 and 1.55 and 1.46 and 1.53 and 2.01 and the “body weight, individual mice” value ([1]; day 3, in g (unit assumed)) was 1.9 and 2.33 and 2.12 and 1.64 and 1.76 and 1.63 and 1.84 and 2.4. The “nasoanal length, individual mice” value ([1]; day 4) was 32 and 34 (2×) and 35 and 31 and 33 (3×), the “tail length, individual mice” value ([1]; day 4) was 17 (3×) and 18 and 19 and 16 (2×) and 15 and the “body weight, individual mice” value ([1]; day 4, in g (unit assumed)) was 2.07 and 2.76 and 2.5 and 1.89 and 2.29 and 1.86 and 2.18 and 2.91. The “body weight, individual mice” value ([1]; day 5) was 2.2 (2×) and 3.12 and 2.97 and 2.23 and 2.52 and 2.53 and 3.27, the “body weight, individual mice” value ([1]; day 6, in g (unit assumed)) was 2.34 and 3.32 and 3.31 and 2.62 and 2.85 and 2.61 and 2.97 and 3.58 and the “nasoanal length, individual mice” value ([1]; day 7) was 35 and 40 and 39 and 34 and 36 (4×). For the same molecule, the “tail length, individual mice” value ([1]; day 7) was 25 and 23 (3×) and 21 (2×) and 24 and 22, the “body weight, individual mice” value ([1]; day 7, in g (unit assumed)) was 2.5 and 3.76 and 3.67 and 3.01 and 3.07 and 3 and 3.31 and 4 and the “body weight, individual mice” value ([1]; day 8, in g (unit assumed)) was 2.88 and 4.38 and 4.13 and 3.59 and 3.58 and 3.33 and 3.74 and 4.2. For the same molecule, the “body weight, individual mice” value ([1]; day 9) was 3.25 and 4.59 (2×) and 4.2 and 3.92 and 3.86 and 3.97 and 4.66, the “nasoanal length, individual mice” value ([1]; day 10) was 40 (3×) and 42 (3×) and 38 and 41 and the “tail length, individual mice” value ([1]; day 10) was 25 and 28 and 27 (3×) and 26 (2×) and 29. For the same molecule, the “body weight, individual mice” value ([1]; day 10, in g (unit assumed)) was 3.5 and 5.05 and 4.73 and 4.46 and 4.52 and 4.17 and 4.41 and 4.98, the “body weight, individual mice” value ([1]; day 11, in g (unit assumed)) was 3.7 and 5.46 and 5.06 and 4.65 and 4.64 and 4.44 and 4.99 and 5.57 and the “body weight, individual mice” value ([1]; day 12, in g (unit assumed)) was 4.17 and 6.04 and 5.26 and 5.13 and 4.96 and 4.59 and 5.3 and 5.5. For the same molecule, the “nasoanal length, individual mice” value ([1]; day 13) was 41 and 46 (2×) and 44 (2×) and 43 and 42 and 45, the “tail length, individual mice” value ([1]; day 13) was 31 (4×) and 35 (3×) and 32 and the “body weight, individual mice” value ([1]; day 13, in g (unit assumed)) was 4.57 and 6.33 and 5.41 and 5.39. For the same molecule, the “nasoanal length, individual mice” value ([1]; day 16) was 42 and 47 (2×) and 48 and 46 (2×) and 44 and 50, the “tail length, individual mice” value ([1]; day 16) was 33 (2×) and 36 (4×) and 34 and 35 and the “average normalization of long bone length toward wild-type” value ([1]; ACH model, 1.2 mg/kg) was 26%. The “source data of Figure 2E (sheet "2E"): long bone length, bone not given” value [1, 7] was 7.38 and 6.94 and 7.67 and 7.62 and 7.75 and 7.48 and 7.35 and 7.46, the “source data of Figure 2F (sheet "2F"): long bone length, bone not given” value [1, 7] was 6.52 and 6.4 and 6.85 and 6.87 and 5.9 and 6.57 and 6.71 and the “source data of Figure 2G (sheet "2G"): long bone length, bone not given” value [1, 7] was 6.5 and 6.23 and 7.03 and 6.67 and 6.08 and 7.07 and 6.74 and 6.82. The “source data of Figure 2H (sheet "2H"): long bone length, bone not given” value [1, 7] was 5.78 and 5.71 and 6.17 and 5.84 and 6.2 and 5.91 and 5.85 and 6.02, the “bone growth compared with low-dose infigratinib (0.5 mg/kg)” value ([1]; TYRA-300 1.2 mg/kg, 15 days starting at 1 day of age, comparator data ref 28, 29) was “more bone growth than low-dose infigratinib” and the “expression of PCNA in distal femoral growth plate” value [2, 5] was “a more well-defined positive zone within the growth plate”. The “number of HZCs within the ROI vs vehicle” value ([2]; 1.2 mg/kg s.c. daily for 15 days, distal femur) was “significant decrease”, the “type X collagen staining in the HZCs” value ([2]; present study) was “partial restoration” and the “shape of the intervertebral disc” value [3] was “slightly modified the shape of the intervertebral disc”. For the same molecule, the “inhibition of FGFR3 N540K relative to wild-type and G380R mutant proteins” value [4] was “lower inhibition”.
